The supplement of paper PMC4858399

Tests used:
[1] = test system: Caenorhabditis elegans N2; assay: mean nematode size ln(EXT) after 48 h, plate-adjusted (DMSO control set to 6) (ln(EXT), control-adjusted); higher = larger nematodes / less growth inhibition; conditions: exposure time 48 h
Summary of the method: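 In K-medium with killed OP50, 1% DMSO and 0.5–200 µM chemical, synchronised N2 L1 larvae of C. elegans (50 per well) grew for 48 h at 20°C. Extinction was read for every worm on the Biosort, with debris removed by a growth model. Natural-log values averaged per well gave mean size, which was corrected per plate by subtracting the vehicle control mean and adding 6.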

[2] = test system: Caenorhabditis elegans N2; assay: lowest effective concentration for larval growth inhibition (size below effect threshold); higher = less potent; conditions: exposure time 48 h
Summary of the method: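 L1 larvae of C. elegans N2 (50 per 96-well) were grown in K-medium with killed bacteria and 1% DMSO, with the chemical at 0.5, 1, 5, 10, 50, 100 or 200 µM, for 48 h at 20°C. Per-worm extinction from the Biosort stood for size and was log-transformed into well means. For each chemical, the lowest effective concentration is the first dose where plate-adjusted mean size falls under the threshold and stays under it at the higher doses, using a threshold of 5.665.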

SMILES | mean nematode size ln(EXT) (ln) ([1]; 0.5 µM) | mean nematode size ln(EXT) (ln) ([1]; 1 µM) | mean nematode size ln(EXT) (ln) ([1]; 5 µM) | mean nematode size ln(EXT) (ln) ([1]; 10 µM) | mean nematode size ln(EXT) (ln) ([1]; 50 µM) | mean nematode size ln(EXT) (ln) ([1]; 100 µM) | mean nematode size ln(EXT) (ln) ([1]; 200 µM) | lowest effective concentration [2]
CC[C@H](C)C(=O)O[C@H]1C[C@H](O)C=C2C=C[C@H](C)[C@H](CC[C@@H](O)C[C@@H](O)CC(=O)O)[C@H]21 [Pravastatin sodium] | 5.99 | 5.97 | 5.93 | 5.92 | 5.91 | 5.79 | 5.81 | > 200 µM
CC(O)CN(CCN(CC(C)O)CC(C)O)CC(C)O (stereo unspecified) [N,N,N',N'-Tetrakis(2-Hydroxypropyl)ethylenediamine] | 5.67 | 5.6 | 5.71 | 5.67 | 5.01 | 5.4 | 5.66 | 50 µM
CCC(C)c1ccccc1O (stereo unspecified) [2-(Butan-2-yl)phenol] | 5.9 | 5.85 | 5.89 | 5.94 | 5.86 | 5.82 | 5.7 | > 200 µM
O=C(O)c1nc(Cl)ccc1Cl [Clopyralid-olamine] | 5.87 | 5.89 | 5.95 | 5.89 | 5.88 | 5.98 | 5.95 | > 200 µM
C=CCc1ccc(OC)c(OC)c1 [Methyleugenol] | 6 | 5.97 | 6.02 | 5.98 | 5.99 | 5.99 | 5.7 | > 200 µM
NCCO [Ethanolamine] | 5.86 | 5.87 | 5.79 | 5.73 | 5.75 | 5.76 | 5.76 | > 200 µM
CC1(C)C(=O)NC(=O)N1CO [1-(Hydroxymethyl)-5,5-dimethylhydantoin] | 5.87 | 6.04 | 5.96 | 5.91 | 5.91 | 5.85 | 5.69 | > 200 µM
CC(=O)OC1CC(C)OC(C)O1 (stereo unspecified) [2,6-Dimethyl-1,3-dioxan-4-ol acetate] | 5.93 | 5.93 | 5.88 | 5.95 | 6.12 | 5.75 | 5.84 | > 200 µM
CCn1nc(C)c2c1C(=O)NCC(c1ccc(O)cc1)=N2 | 5.87 | 5.81 | 5.85 | 5.89 | 5.87 | 5.9 | 5.71 | > 200 µM
CO[C@@H]1COCC[C@@H]1N[C@@H]1CC[C@@](C(=O)N2CCc3ncc(C(F)(F)F)cc3C2)(C(C)C)C1 | 5.89 | 5.88 | 5.95 | 5.95 | 5.93 | 5.86 | 5.84 | > 200 µM
O=C(O)c1cc(Oc2ccc(C(F)(F)F)cc2Cl)ccc1[N+](=O)[O-] [Acifluorfen] | 5.84 | 5.92 | 5.76 | 6.05 | 6.01 | 6.24 | 5.94 | > 200 µM
Nc1nc(Cl)nc2c1ncn2[C@H]1C[C@H](O)[C@@H](CO)O1 [2-Chloro-2'-deoxyadenosine] | 5.92 | 5.87 | 5.91 | 5.87 | 5.88 | 5.88 | 5.7 | > 200 µM
